In brackets after ≈: the same amount, converted by molar mass. Where two headings read alike, the source gives them in different places.
Key:
Type in all cases: cell-based
[1] = tested on: Haemophilus influenzae Q1; assay: Human bacteria MIC; settings: Haemophilus influenzae, Q1, 18 h
Experimental: (§1) The values were determined by serial dilutions in nutrient agar with 5% chocolated horse blood after incubations for 18 hours at 37° C.

Staph. aureus Oxford [2] = assay: Human bacteria MIC; settings: Staphylococcus aureus
Experimental: as §1

Strep Group B 2788 = assay: Human bacteria MIC
Experimental: as §1

[3] = tested on: Corneybacterium xerosis 9755; assay: Human bacteria MIC; settings: 18 h
Experimental: as §1

[4] = tested on: Neisseria catarralis 1502; assay: Human bacteria MIC
Experimental: as §1

[5] = tested on: Pasteurella multocida 1633; assay: Human bacteria MIC
Experimental: as §1

Strep. faecalis I = assay: Human bacteria MIC; settings: Enterococcus faecalis, nutrient agar, 5% chocolated horse blood, 18 hours 37° C.
Experimental: as §1

[6] = tested on: M. hyosynoviae ATCC 25591; assay: Anti-mycoplasmal activity in vitro MIC; settings: 144 h
M. bovis NCTC 10131 = assay: microbe, parasite or virus in culture; settings: NCTC10131, 144 h
Past. haemolytica PA5 = assay: Veterinary bacteria MIC; settings: Mannheimia haemolytica
Experimental: (§2) The values were determined using a two fold serial dilutions in Diagnostic Sensitivity Test Agar with an inoculum of 10^4 organisms and incubation for 18 hours at 37° C.

Bord. bronchiseptica B08 = assay: Veterinary bacteria MIC; settings: Bordetella bronchiseptica
Experimental: as §2

Strep. uberis SPU1 = assay: Veterinary bacteria MIC; settings: Streptococcus uberis, Diagnostic Sensitivity Test Agar, 18 hours 37° C.
Experimental: as §2

S. dublin S7 = assay: Veterinary bacteria MIC; settings: Salmonella enterica, S7, 18 h
Experimental: as §2

S. typhimurium S18 = assay: Veterinary bacteria MIC; settings: Salmonella enterica, TYPHIMURIUM, 18 h
Experimental: as §2

[7] = tested on: Corynebacterium pyogenes CY1; assay: Veterinary bacteria MIC; settings: Trueperella pyogenes, CY1, 18 h
Experimental: as §2

[8] = tested on: Strep. suis (Group D) SPS11; assay: Veterinary bacteria MIC; settings: Streptococcus suis
Experimental: as §2

Past. multocida PA2 = assay: Veterinary bacteria MIC; settings: Pasteurella multocida; Past. multocida PA2; Diagnostic Sensitivity Test Agar, 18 hours 37° C.; read-out: M.I.C.
Experimental: as §2

Staph. aureus Oxford [9] = assay: Veterinary bacteria MIC; settings: Staphylococcus aureus, Diagnostic Sensitivity Test Agar, 18 hours 37° C.
Experimental: as §2

[10] = tested on: Erysipelothrix rhusiopathiae NCTC 8163; assay: Veterinary bacteria MIC; settings: Erysipelothrix rhusiopathiae, NCTC8163, 18 h
Experimental: as §2

Past. multocida PA1 = assay: Veterinary bacteria MIC; settings: Pasteurella multocida, Diagnostic Sensitivity Test Agar, 18 hours 37° C.
Experimental: as §2

E. coli El = assay: Veterinary bacteria MIC; settings: Escherichia coli, 18 h
Experimental: as §2

[11] = tested on: Staph. aureus 152 (pen. sens); assay: Veterinary bacteria MIC; settings: Staphylococcus aureus, Diagnostic Sensitivity Test Agar, 18 hours 37° C.
Experimental: as §2

Bord. brochiasetpica B09 = assay: Veterinary bacteria MIC; settings: Diagnostic Sensitivity Test Agar, 18 hours 37° C.
Experimental: as §2

[12] = tested on: Staph. aureus B4 (pen. resistant); assay: Veterinary bacteria MIC; settings: Staphylococcus aureus, Diagnostic Sensitivity Test Agar, 18 hours 37° C.
Experimental: as §2

Strep. dysgalactiae SPD1 = assay: Veterinary bacteria MIC; settings: Streptococcus dysgalactiae, Diagnostic Sensitivity Test Agar, 18 hours 37° C.
Experimental: as §2

Strep. agalactiae SPA1 = assay: Veterinary bacteria MIC; settings: Streptococcus agalactiae, Diagnostic Sensitivity Test Agar, 18 hours 37° C.
Experimental: as §2

E. coli NCTC 10418 = assay: Veterinary bacteria MIC; settings: Escherichia coli, NCTC10418, 18 h
Experimental: as §2

M. suipneumoniae Str. 11 = assay: Anti-mycoplasmal activity in vitro MIC; settings: Mesomycoplasma hyopneumoniae, 144 h; M. suipneumoniae Str. 11; Friis broth, 0.9% agarose, 6 days 37° C.; read-out: M.I.C.
[13] = tested on: M. suipneumoniae J2206/183b; assay: Anti-mycoplasmal activity in vitro MIC; settings: Mesomycoplasma hyopneumoniae, J2206/183B, 144 h
M. gallisepticum S6 = assay: Anti-mycoplasmal activity in vitro MIC; settings: Mycoplasmoides gallisepticum
M. suipneumoniae HK (2) = assay: Anti-mycoplasmal activity in vitro MIC; settings: Mesomycoplasma hyopneumoniae, 144 h
M. suipneumoniae JF 435 = assay: Anti-mycoplasmal activity in vitro MIC; settings: Mesomycoplasma hyopneumoniae, JF435, 144 h

C/C(=C\C(=O)OCCCCCC=NN(C)C)C[C@@H]1OC[C@H](C[C@@H]2O[C@H]2[C@@H](C)[C@H](C)O)[C@@H](O)[C@H]1O [Example 6, 6-Dimethylhydrazonohexyl monate A]
MIC [1]: 0.5 µg/mL (≈ 1.03 µM) | MIC (Staph. aureus Oxford [2]; 18 h): 0.1 µg/mL (≈ 0.206 µM) | MIC (Strep Group B 2788; 18 h): 1 µg/mL (≈ 2.06 µM) | MIC [3]: > 100 µg/mL | MIC ([4]; Neisseria, 1502, 18 h): 0.05 µg/mL (≈ 0.103 µM) | MIC ([5]; Pasteurella multocida, 1633, 18 h): 1 µg/mL (≈ 2.06 µM) | MIC (Strep. faecalis I): > 100 µg/mL | MIC [6]: 0.1 µg/mL (≈ 0.206 µM) | MIC (M. bovis NCTC 10131): ≤ 0.01 µg/mL | MIC (Past. haemolytica PA5; Past. haemolytica PA5, Diagnostic Sensitivity Test Agar, 18 hours 37° C., read-out: M.I.C.): 10 µg/mL (≈ 20.6 µM) | MIC (Bord. bronchiseptica B08; B08, 18 h): 5 µg/mL (≈ 10.3 µM) | MIC (Strep. uberis SPU1): 0.312 µg/mL (≈ 0.644 µM) | MIC (S. dublin S7): > 80 µg/mL | MIC (S. typhimurium S18): > 80 µg/mL | MIC [7]: > 80 µg/mL | MIC ([8]; 18 h): 20 µg/mL (≈ 41.3 µM) | MIC (Past. multocida PA2): 0.312 µg/mL (≈ 0.644 µM) | MIC (Staph. aureus Oxford [9]): 0.07 µg/mL (≈ 0.144 µM) | MIC [10]: 80 µg/mL (≈ 165 µM) | MIC (Past. multocida PA1): 2.5 µg/mL (≈ 5.16 µM) | MIC (E. coli El): > 80 µg/mL | MIC [11]: 0.07 µg/mL (≈ 0.144 µM) | MIC (Bord. brochiasetpica B09): 2.5 µg/mL (≈ 5.16 µM) | MIC [12]: 0.07 µg/mL (≈ 0.144 µM) | MIC (Strep. dysgalactiae SPD1): 0.07 µg/mL (≈ 0.144 µM) | MIC (Strep. agalactiae SPA1): 1.25 µg/mL (≈ 2.58 µM) | MIC (E. coli NCTC 10418): > 80 µg/mL | MIC (M. suipneumoniae Str. 11): 0.5 µg/mL (≈ 1.03 µM) | MIC [13]: 1 µg/mL (≈ 2.06 µM) | MIC (M. gallisepticum S6; S6, 144 h): 5 µg/mL (≈ 10.3 µM) | MIC (M. suipneumoniae HK (2)): 1 µg/mL (≈ 2.06 µM) | MIC (M. suipneumoniae JF 435; M. suipneumoniae JF 435, Friis broth, 0.9% agarose, 6 days 37° C., read-out: M.I.C.): 0.5 µg/mL (≈ 1.03 µM)

C/C(=C\C(=O)OCc1ccc(C=NO)o1)C[C@@H]1OC[C@H](C[C@@H]2O[C@H]2[C@@H](C)[C@H](C)O)[C@@H](O)[C@H]1O [Example 7, 5-Hydroxyiminomethylfurfuryl monate A]
MIC [1]: 0.25 µg/mL (≈ 0.535 µM) | MIC (Staph. aureus Oxford [2]; Staph. aureus Oxford, nutrient agar, 5% chocolated horse blood, 18 hours 37° C., read-out: M.I.C.): 2.5 µg/mL (≈ 5.35 µM) | MIC (Strep Group B 2788; Strep Group B 2788, nutrient agar, 5% chocolated horse blood, 18 hours 37° C., read-out: M.I.C.): 2.5 µg/mL (≈ 5.35 µM) | MIC [3]: > 100 µg/mL | MIC ([4]; Neisseria catarralis 1502, nutrient agar, 5% chocolated horse blood, 18 hours 37° C., read-out: M.I.C.): 0.25 µg/mL (≈ 0.535 µM) | MIC ([5]; Pasteurella multocida 1633, nutrient agar, 5% chocolated horse blood, 18 hours 37° C., read-out: M.I.C.): 2.5 µg/mL (≈ 5.35 µM) | MIC (Strep. faecalis I): > 100 µg/mL | MIC [6]: 0.25 µg/mL (≈ 0.535 µM) | MIC (M. bovis NCTC 10131): ≤ 0.01 µg/mL | MIC (Past. haemolytica PA5; PA5, 18 h): 5 µg/mL (≈ 10.7 µM) | MIC (Bord. bronchiseptica B08; Bord. bronchiseptica B08, Diagnostic Sensitivity Test Agar, 18 hours 37° C., read-out: M.I.C.): > 80 µg/mL | MIC (Strep. uberis SPU1): 0.625 µg/mL (≈ 1.34 µM) | MIC (S. dublin S7): > 80 µg/mL | MIC (S. typhimurium S18): > 80 µg/mL | MIC [7]: > 80 µg/mL | MIC ([8]; Strep. suis (Group D) SPS11, Diagnostic Sensitivity Test Agar, 18 hours 37° C., read-out: M.I.C.): 20 µg/mL (≈ 42.8 µM) | MIC (Past. multocida PA2): 0.625 µg/mL (≈ 1.34 µM) | MIC (Staph. aureus Oxford [9]): 1.25 µg/mL (≈ 2.67 µM) | MIC [10]: > 80 µg/mL | MIC (Past. multocida PA1): 0.625 µg/mL (≈ 1.34 µM) | MIC (E. coli El): > 80 µg/mL | MIC [11]: 1.25 µg/mL (≈ 2.67 µM) | MIC (Bord. brochiasetpica B09): 2.5 µg/mL (≈ 5.35 µM) | MIC [12]: 1.25 µg/mL (≈ 2.67 µM) | MIC (Strep. dysgalactiae SPD1): 0.625 µg/mL (≈ 1.34 µM) | MIC (Strep. agalactiae SPA1): 1.25 µg/mL (≈ 2.67 µM) | MIC (E. coli NCTC 10418): > 80 µg/mL | MIC (M. suipneumoniae Str. 11): 0.5 µg/mL (≈ 1.07 µM) | MIC [13]: 1 µg/mL (≈ 2.14 µM) | MIC (M. gallisepticum S6; 144 h, M. gallisepticum S6, Friis broth, 0.9% agarose, 6 days 37° C., read-out: M.I.C.): 5 µg/mL (≈ 10.7 µM) | MIC (M. suipneumoniae HK (2)): 1 µg/mL (≈ 2.14 µM) | MIC (M. suipneumoniae JF 435): 1 µg/mL (≈ 2.14 µM)
